The test system of series [1] is GPD1. In words: Real-time PCR of GPD1 expression in rat sebaceous gland (epidermal split) after topical PPARgamma agonist, kinetics. It counts as in vivo. Particulars: topical 1% in acetone, female FUZZY rats, standardized to 18S, versus carrier group. As to the method:
(§1) Skin biopsies are taken (6 samples of skin excised per rat) in order to analyze the expression of the genes (RNA extraction, reverse transcriptase and real-time PCR). The samples are stored at 4° C. overnight before incubation in 1 M sodium bromide (NaBr) for 2 hours at 37° C. After incubation, the samples are separated into epidermis or dermis. The epidermal samples are stored at 20° C. Under these conditions, the sebaceous glands are in the epidermal split. PCRs are carried out, beginning with the cDNAs originating from the epidermal splits containing sebaceous glands from control rats or rats treated with a PPARγ agonist: the mRNA is extracted using a column and quantified. The quality of the mRNAs is measured and is represented by the 18S/28S ratio. The results are standardized with respect to 18S, expressed as relative induction versus untreated animals (carrier group). The statistical analysis is obtained using internal software based on a modified Monte Carlo statistical analysis.
In general terms: In qPCR the cycle at which signal appears reflects the starting amount.

The test system of series [2] is CYP2B15. Nature of the series: Real-time PCR of CYP2B15 expression in rat sebaceous gland (epidermal split) after topical PPARgamma agonist, kinetics. It counts as in vivo. Particulars: topical 1% in acetone, female FUZZY rats, standardized to 18S, versus carrier group.
From the text: as §1, with “• Strain: Ico:HSd:FUZZY-fz • Gender: female • Age: 10 weeks Number per batch: 40 (8 animals per group) Treatment: Route of administration: topical • Compound/batch: PPARgamma agonists: • A: 5-{4-[2-(methylpyridin-2-ylamino)ethoxy]benzyl}thiazolidine-2,4-dione • B: 2-(methoxyethoxymethoxy)naphthalene-2-carboxylic acid [4′-(2,4-dioxothiazolidin-5-ylmethyl)biphenyl-3-ylmethyl]methylamide or rosiglitazone • C: (S)-2-ethoxy-3-{4-[6-(3-heptyl-1-methylureido)pyridin-2-yl]phenyl}propionic acid • Doses: 1% • Carrier: acetone (001) • Duration: 96 hours Method of evaluation: The animals are weighed at the beginning and at the end of the study. Skin” for “Skin”

Series [3] concerns GPD1. Nature of the series: Affymetrix transcriptome measurement of GPD1 expression in Fuzzy rat epidermal split after 8 days of topical treatment. The conditions noted are these: GPD1 mRNA (1371363_at), female FUZZY rats, topical 1%, once a day for 8 days, control condition 66. It counts as in vivo.
For series [4], the system named is CYP2B15. In words: Affymetrix transcriptome measurement of CYP2B15 expression in Fuzzy rat epidermal split after 8 days of topical treatment. Particulars: topical 1%. As to the method: The studies are carried out in female Fuzzy rats (Hsd: FUZZY-fz) 10 weeks old at the beginning of the study. The animals are treated at a dose of 1% (PPARg agonist Rosiglitazone in solution in acetone) once a day for 8 days. Two hours after the final treatment, the animals are sacrificed by euthanasia and the skin on the back is removed. After incubation in dispase, the epidermis carrying the sebaceous glands is detached from the dermis (epidermal split). After grinding of the samples, the mRNA is prepared using Qiagen columns, in accordance with the suppliers' instructions. The material thus prepared is subjected to large-scale transcriptome analysis on an Affymetrix platform. The data are subsequently standardized and, after statistical analysis, the results produced are expressed in arbitrary expression units (see below) accompanied, for each piece of data, by a statistical value for presence of the transcript (presence=1; absence=0).

In the case of `CCCCCCCNC(=O)N(C)c1cccc(-c2ccc(C[C@H](OCC)C(=O)O)cc2)n1` [C, (S)-2-ethoxy-3-{4-[6-(3-heptyl-1-methylureido)pyridin-2-yl]phenyl}propionic acid], the GPD1 relative induction with GPD1 [1] (0 hours) worked out at 1; in the series with GPD1 [1] (8 hours), 7.59; with GPD1 [1] (24 hours), 11.56; in the series on GPD1 [1] (48 hours), 7.50; with GPD1 [1] (96 hours) it was 3.44. The CYP2B15 relative induction in the series with CYP2B15 [2] (0 hours) came to 1; in the series on CYP2B15 [2] (8 hours), 0.61; with CYP2B15 [2] (24 hours), 0.18; in the series on CYP2B15 [2] (48 hours), 0.11; in the series on CYP2B15 [2] (96 hours), 0.04.
Turning to `CN(CCOc1ccc(CC2SC(=O)NC2=O)cc1)c1ccccn1` (centres unmarked) [A, 5-{4-[2-(methylpyridin-2-ylamino)ethoxy]benzyl}thiazolidine-2,4-dione], the GPD1 relative induction in the series with GPD1 [1] (0 hours) is recorded as 1; in the series on GPD1 [1] (8 hours), 18.52; with GPD1 [1] (24 hours), 12.53; with GPD1 [1] (48 hours) it was 6.93; with GPD1 [1] (96 hours), 3.42. For the same compound, the CYP2B15 relative induction in the series with CYP2B15 [2] (0 hours) is recorded as 1; with CYP2B15 [2] (8 hours), 1.56; with CYP2B15 [2] (24 hours), 0.68; in the series with CYP2B15 [2] (48 hours), 0.29; with CYP2B15 [2] (96 hours), 0.08.
`CN(CCOc1ccc(CC2SC(=O)NC2=O)cc1)c1ccccn1` (centres unmarked) [Rosiglitazone]: the “Expression after treatment with 1% Rosiglitazone” value is listed as 243 arbitrary expression units in the series with GPD1 [3] and 35 arbitrary expression units in the series on CYP2B15 [4] (CYP2B15 mRNA (1387722_at), female FUZZY rats, once a day for 8 days, control condition 120). In the series on CYP2B15 [4] (CYP2B15 transcript presence indicator, 8 days), the “Significance of the expression after treatment with 1% Rosiglitazone” value is reported as 1.
